Assay results: publication PMC9049331, “X-ray crystal structure of the Escherichia coli RadD DNA repair protein bound to ADP reveals a novel zinc ribbon domain” (PLoS ONE, 2022)

Biological target: T1, RadD (Escherichia coli, UniProt P33919)
T1 construct: open reading frame of E. coli radD from plasmid pEAW724, no tag mentioned, expressed in E. coli STL2669 (DE3)
T1 sequence (P33919 1-586): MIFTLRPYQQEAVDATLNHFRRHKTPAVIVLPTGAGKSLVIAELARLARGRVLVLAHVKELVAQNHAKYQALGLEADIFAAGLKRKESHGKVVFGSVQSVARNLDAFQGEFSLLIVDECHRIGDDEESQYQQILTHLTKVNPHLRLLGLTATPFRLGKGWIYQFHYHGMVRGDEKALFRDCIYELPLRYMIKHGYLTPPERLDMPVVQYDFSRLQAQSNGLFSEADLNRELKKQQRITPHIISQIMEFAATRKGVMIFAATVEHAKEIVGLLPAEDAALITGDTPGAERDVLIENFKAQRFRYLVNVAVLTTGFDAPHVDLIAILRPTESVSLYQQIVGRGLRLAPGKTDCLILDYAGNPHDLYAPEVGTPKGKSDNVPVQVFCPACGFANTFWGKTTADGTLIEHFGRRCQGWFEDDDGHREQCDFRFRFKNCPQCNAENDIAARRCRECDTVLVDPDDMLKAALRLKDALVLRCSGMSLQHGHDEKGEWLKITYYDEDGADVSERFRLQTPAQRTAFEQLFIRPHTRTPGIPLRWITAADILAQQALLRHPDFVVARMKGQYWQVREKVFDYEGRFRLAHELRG
Assay: X-ray crystal structure, […] A
Type: binding
Settings: crystallised with 1 mM ATPgammaS, ADP presumed from slow hydrolysis; Mg2+; pH 7.7; 4 C; ATPase site

X-ray crystal structure, 2.03 A: ADP was modelled in the RadD active site
SMILES: Nc1ncnc2c1ncn2[C@@H]1O[C@H](COP(=O)(O)OP(=O)(O)O)[C@@H](O)[C@H]1O [ADP]
